In article PMC8198049, “Synthesis and Evaluation of the Tetracyclic Ring-System of Isocryptolepine and Regioisomers for Antimalarial, Antiproliferative and Antimicrobial Activities” (Molecules, 2021):
≈ marks a conversion by molar mass, not a printed value.

Assays:
S. aureus (ATCC 25923) = experiment: Bacterial growth inhibition assay; format: cell-based, Staphylococcus aureus; parameters: MIC (Gentamycin, unit not given): unit not given beside the values
Description: (§1) The prepared samples were tested for in vitro antimicrobial activity against E. faecalis, E. coli, P. aeruginosa, S. aureus, Streptococcus agalactiae and S. epidermis using gentamycin as a reference compound.
(§2) To determine and quantify antimicrobial activity, a bacteria growth inhibition assay in liquid media was executed. Compounds 2–3, 4, 8–10, 13–14, 16, 18, and 20 were tested against Staphylococcus aureus (ATCC 25923), Escherichia coli (ATCC 259233), Enterococcus faecialis (ATCC 29122), Pseudomonas aeruginosa (ATCC 27853) and Streptococcus agalactiae (ATCC 12386); all strains from LGC Standards (Teddington, UK). S. aureus, E. coli, and P. aeruginosa were grown in Muller Hinton broth (275730, Becton, Franklin Lakes, NJ, USA). E. faecalis and S. agalactiae were cultured in brain hearth infusion broth (53286, Sigma, St Louise, MO, USA). Fresh bacterial colonies were transferred in the respective medium and incubated at 37 °C overnight. The bacterial cultures were diluted to a culture density representing the log phase and µL/well were pipetted into a 96-well microtiter plate (734–2097, NunclonTM, Thermo Scientific, Waltham, MA, USA). The final cell density was 1500–15.000 colony forming units/well. The compound was diluted in 2% (v/v) DMSO in ddH2O, providing a final assay concentration of 50% of the prepared sample, since 50 µL of sample in DMSO/water were added to 50 µL bacterial culture. After adding the samples to the plates, they were incubated overnight at 37 °C and the growth was determined by measuring the optical density at λ = 600 nm (OD600) with a 1420 Multilabel Counter VICTOR3TM (Perkin Elmer, Waltham, MA, USA). A water sample was used as a reference control, growth medium without bacteria was used as a negative control and dilution series of gentamycin (A2712, Merck, Darmstadt, DE) from 32 to 0.01 µg/mL was used as positive control and visually inspected for bacterial growth. The positive control was used as a system suitability test and the results of the antimicrobial assay were only considered valid when positive control was passed. The final concentration of DMSO in the assays was ≤2% (v/v) and was known to have no effect in the tested bacteria. The data was processed using GraphPad Prism 8.

E. coli (ATCC 259233) = experiment: Bacterial growth inhibition assay; format: cell-based, Escherichia coli; parameters: MIC (Gentamycin, unit not given): unit not given beside the values
Description: as §1
as §2, with “The final concentration of DMSO in the assays was ≤2% (v/v) and was known to have no effect in the tested bacteria. The data was processed using GraphPad Prism 8.” left out

E. faecalis (ATCC 29122) = experiment: Bacterial growth inhibition assay; format: cell-based, Enterococcus faecialis; parameters: MIC (Gentamycin, unit not given): unit not given beside the values
Description: as §1, §2

[1] = system: Streptococcus agalactiae (ATCC 12386); experiment: Bacterial growth inhibition assay; format: cell-based; parameters: MIC (Gentamycin, unit not given): unit not given beside the values; conditions: for MIC: ATCC12386
Description: as §1, §2

[2] = system: S. epidermis (ATCC 35984); experiment: Biofilm formation inhibition assay; format: cell-based, Staphylococcus epidermidis; conditions: inhibition of biofilm formation
Description: as §1
For testing the inhibition of biofilm formation, the biofilm-producing Staphylococcus epidermidis (ATCC 35984) was grown in Tryptic Soy Broth (TSB, 105459, Merck, Kenilworth, NJ, USA) overnight at 37 °C. The overnight culture was diluted in fresh medium with 1% glucose (D9434, Sigma) before being transferred to a 96-well microtiter plate; 50 µL/well were incubated overnight with 50 µL of the test compound dissolved in 2% (v/v) DMSO aq. added in duplicates. The bacterial culture was removed from the plate and the plate was washed with tap water. The biofilm was fixed at 65 °C for 1 h before 70 µL 0.1% crystal violet (115940, Millipore, Burlington, MA, USA) was added to the wells for 10 min of incubation and 70 µL of 70% ethanol was then added to each well and the plate incubated on a shaker for 5–10 min. Biofilm formation inhibition was assessed by the presence of violet color and measured at […] absorbance using a 1420 Multilabel Counter VICTOR3TM; 50 µL of a non-biofilm forming Staphylococcus haemolyticus (clinical isolate 8-7A, University Hospital of North Norway Tromsø, Norway) mixed in 50 µL autoclaved Milli-Q water was used as a control; 50 µL S. epidermidis mixed in 50 µL autoclaved Milli-Q water was used as the control for biofilm formation; and 50 µL TSB with 50 µL autoclaved Milli-Q water was used as a medium blank control.

[3] = Cytotoxicity assay (resazurin-based viability); format: cell-based; conditions: human, HEK293 cells, mean ± standard deviation, two separate experiments
Description: Fluorescence was measured using an EnSight plate reader (PerkinElmer, Waltham, MA, USA).

[4] = Antiplasmodial imaging assay; format: cell-based, Plasmodium falciparum; conditions: human (HEK293) and Plasmodium falciparum (3D7), HEK293 cells versus Plasmodium falciparum 3D7 culture; HEK293 vs 3D7; read-out: SI (selectivity index = cytotoxicity in HEK293/activity in 3D7)
Description: (§3) Compounds tested in the antiproliferative assays were tested in 11 dilution points (0.02 µM–40 µM or 0.04 µM–80 µM).
(§4) Antiplasmodial activity was determined as previously described by Duffy and Avery. […] After incubation, plates were stained with 4’,6-diamidino-2-phenylindole (DAPI) in a permeabilization buffer for 5 h at rt in the dark. Plates were imaged on the Opera confocal microplate image reader (PerkinElmer).

[5] = system: Plasmodium falciparum 3D7 strain; experiment: Antiplasmodial imaging assay; format: cell-based; conditions: P. falciparum 3D7, 72 h, mean ± standard deviation, two separate experiments; for IC50: Plasmodium falciparum
Description: as §3, §4

[6] = system: HCT116 (human colon cancer); experiment: Antiproliferative assay (resazurin); format: cell-based; conditions: Homo sapiens, HCT-116; 72 h compound incubation; mean ± sem, two separate experiments
Description: (§5) Compounds tested in the antiproliferative assays were tested in 11 dilution points (0.02 µM–40 µM or 0.04 µM–80 µM). […] HCT116 cells were maintained in McCoy’s 5A media (Life Technologies, CA, USA), MDA-MB-231 cells were cultured in DMEM media (Life Technologies) with 10 mM HEPES (Life Technologies), whilst PC-3 cells were maintained in RPMI media (Life Technologies). All media were supplemented with 10% heat-inactivated fetal bovine serum (Australian source; Corning, CA, USA) and all cells were incubated at 37 °C in a humidified incubator with 5% CO2. Cells were seeded in 384-well plates (Greiner Bio-One, NC, USA) using the respective complete media. After 24 h cell seeding, compounds were added and antiproliferative activity was determined using the resazurin assay after 72 h compound incubation. Briefly, cells were incubated with 60 µM resazurin (Cayman, MI, USA) for 6 h at 37 °C and fluorescence signals were measured using a microplate reader (EnSight, PerkinElmer, Waltham, MA, USA).

[7] = system: MDA-MB-231 (human breast adenocarcinoma); experiment: Antiproliferative assay (resazurin); format: cell-based; conditions: Homo sapiens, MDA-MB-231; 72 h compound incubation; mean ± sem, two separate experiments
Description: as §5

[8] = system: PC-3 (human prostate cancer); experiment: Antiproliferative assay (resazurin); format: cell-based; conditions: for IC50: Homo sapiens, 72 h compound incubation, mean ± sem, two separate experiments
Description: as §5

[9] = system: HCT116, MDA-MB-231 and PC-3; experiment: Antiproliferative assay, whole panel of cancer cell lines; format: cell-based, human
Description: as §5

[10] = system: P. aeruginosa (ATCC 27853); experiment: Bacterial growth inhibition assay; format: cell-based, Pseudomonas aeruginosa; parameters: unit not given beside the values; conditions: reference compound
Description: as §1
(§6) To determine and quantify antimicrobial activity, a bacteria growth inhibition assay in liquid media was executed. Compounds 2–3, 4, 8–10, 13–14, 16, 18, and 20 were tested against Staphylococcus aureus (ATCC 25923), Escherichia coli (ATCC 259233), Enterococcus faecialis (ATCC 29122), Pseudomonas aeruginosa (ATCC 27853) and Streptococcus agalactiae (ATCC 12386); all strains from LGC Standards (Teddington, UK). S. aureus, E. coli, and P. aeruginosa were grown in Muller Hinton broth (275730, Becton, Franklin Lakes, NJ, USA). E. faecalis and S. agalactiae were cultured in brain hearth infusion broth (53286, Sigma, St Louise, MO, USA). Fresh bacterial colonies were transferred in the respective medium and incubated at 37 °C overnight. The bacterial cultures were diluted to a culture density representing the log phase and µL/well were pipetted into a 96-well microtiter plate (734–2097, NunclonTM, Thermo Scientific, Waltham, MA, USA). […] After adding the samples to the plates, they were incubated overnight at 37 °C and the growth was determined by measuring the optical density at λ = 600 nm (OD600) with a 1420 Multilabel Counter VICTOR3TM (Perkin Elmer, Waltham, MA, USA). […]

[11] = system: E. faecalis, E. coli, P. aeruginosa, S. aureus, Streptococcus agalactiae and S. epidermis; experiment: Antimicrobial and biofilm inhibition assays, whole panel of tested strains; format: cell-based; conditions: five bacterial strains and biofilm formation; tested up to 100 µM
Description: as §1, §6

## Cn1cc2c3ccccc3nc-2c2ccccc21 [Isocryptolepine (3a), isocryptolepine]
S. aureus (ATCC 25923); Staphylococcus aureus, ATCC25923
  MIC: 100 µM (≈ 23.2 µg/mL)
E. coli (ATCC 259233); Escherichia coli, ATCC259233
  MIC: 100 µM (≈ 23.2 µg/mL)
E. faecalis (ATCC 29122); Enterococcus faecalis, ATCC29122
  MIC: 100 µM (≈ 23.2 µg/mL)
[1]
  MIC: 100 µM (≈ 23.2 µg/mL)
[2]
  MBIC: 100 µM
[3]
  IC50 at 72 h: 2.07 ± 0.07 µM
[4]
  selectivity ratio at 72 h: 1.7
[5]
  IC50: 1.21 ± 0.084 µM
[6]
  IC50: 0.667 ± 0.045 µM
[7]
  IC50: 0.695 ± 0.13 µM
[8]
  IC50: 1.821 ± 0.007 µM

## Cn1c2nc3ccccc3c-2cc2ccccc21 [Neocryptolepine (2), Neocryptolepine]
[1]
  MIC: 100 µM (≈ 23.2 µg/mL)
[3]
  IC50 at 72 h: > 20 µM
[4]
  selectivity ratio at 72 h: > 2.8
[5]
  IC50: 7.249 ± 0.006 µM
[6]
  IC50: 6.22 ± 0.09 µM
[7]
  IC50: 10.4 µM
[8]; PC-3, 80 µM
  % at 80 µM (PC-3): 27% at 80 µM

## Fc1ccc2[nH]c3ccc4ncccc4c3c2c1 [Compound 9b, 10-Fluoro-7H-pyrido[2,3-c]carbazole]
other
  melting point: 256 to 257 °C
[2]
  MBIC: 100 µM

## c1ccc2nc3[nH]c4ccccc4c3cc2c1 [Compound 13, 6H-Indolo[2,3-b]quinoline]
[5]
  3D7 IC50: no antiplasmodial inhibition
[9]
  activity against the panel of cancer cell lines: inactive

## C[n+]1cccc2c3[nH]c4ccccc4c3ccc21 [Compound 21, 4-Methyl-11H-pyrido[3,2-a]carbazolium Iodide]
[5]
  IC50: 0.38 ± 0.0005 µM
[9]
  activity against the panel of cancer cell lines: no activity

## gentamycin [reference compound]
S. aureus (ATCC 25923); reference compound
  MIC (Gentamycin, unit not given): 0.06
E. coli (ATCC 259233); reference compound
  MIC (Gentamycin, unit not given): 0.13
E. faecalis (ATCC 29122); reference compound
  MIC (Gentamycin, unit not given): 8
[1]; reference compound
  MIC (Gentamycin, unit not given): 4
[10]
  MIC (Gentamycin, unit not given): 0.25

## COC1=CN(C)c2cccc3c2c1nc1ccccc13 [Compound 8b, 6-Methoxy-4-methyl-4H-pyrido[4,3,2-gh]phenanthridine]
[11]
  activity against any of the tested strains: complete loss of activity
[3]
  IC50 at 72 h: 5.057 ± 0.045 µM
[4]
  selectivity ratio at 72 h: 3.3
[5]
  IC50: 1.55 ± 0.027 µM
[6]
  IC50: 0.871 ± 0.172 µM
[7]
  IC50: 0.814 ± 0.162 µM
[8]
  IC50: 4.54 ± 0.361 µM
